Read-outs that look alike come from different tables or passages of the source.
Columns and labels:
[1] = tested on: PC-3; experiment: cells
Source text: (§1) The only compounds which belong to the invention are the ones falling under the scope of formula (XI).
Cells were stained with SRB solution.
Cells. […] Cells between the third and fifth passages were used for experiments.
Cell growth inhibition studies. […] Cells were stained with sulphorhodamine B (SRB) solution.

[2] = tested on: DU 145; experiment: cells; details: Homo sapiens
[3] = tested on: B16-F1; experiment: SRB cell growth inhibition (cytotoxicity) assay; format: cell-based, mouse
Source text: as §1

[4] = tested on: PPC-1; experiment: cells; details: Homo sapiens
[5] = tested on: LNCaP; experiment: cells; details: Homo sapiens
[6] = tested on: A375; experiment: SRB cell growth inhibition (cytotoxicity) assay; format: cell-based, human
[7] = Homo sapiens, PC-3, 96 h, read-out: IC50 ± SEM (nM), PC-3
[8] = DU-145, 96 h, read-out: IC50 ± SEM (nM), DU 145
[9] = Mus musculus, B16-F1; read-out: IC50 ± SEM (nM), B16-F1
[10] = PPC-1, 96 h, read-out: IC50 ± SEM (nM), PPC-1
[11] = 96 h, read-out: IC50 ± SEM (nM), LNCaP
[12] = Homo sapiens, A-375, 96 h; read-out: IC50 ± SEM (nM), A375
[13] = Homo sapiens, PC-3, read-out: IC50 ±SEM (nM), PC-3
[14] = DU-145, read-out: IC50 ±SEM (nM), DU 145
[15] = PPC-1, read-out: IC50 ±SEM (nM), PPC-1
[16] = read-out: IC50 ±SEM (nM), LNCaP
[17] = Homo sapiens, PC-3, 96 h, read-out: IC50 (nM), PC-3
[18] = DU-145, 96 h, read-out: IC50 ± SEM (nM) Du 145
[19] = Homo sapiens, PC-3, read-out: IC50 (nM), PC-3
[20] = DU-145, read-out: IC50 (nM), DU 145
[21] = PPC-1, read-out: IC50 (nM), PPC-1

Structure (SMILES) | IC50 [1, 7] | IC50 [2, 8] | IC50 [4, 10] | IC50 [5, 11] | also measured
COc1cc(C(=O)c2cccc(-c3ccccc3)c2)cc(OC)c1OC [1a, Biphenyl-3-yl(3,4,5-trimethoxyphenyl)methanone] | 81 nM | 178 nM | 85 nM | 234 nM | IC50 [3, 9]: 500 ± 200 nM; IC50 [6, 12]: 87 ± 15 nM
COc1cc(C(O)c2csc(-c3ccccc3)n2)cc(OC)c1OC (stereo not shown) [2b, (2-Phenylthiazol-4-yl)(3,4,5-trimethoxyphenyl)methanol] | > 10000 nM | > 10000 nM | > 10000 nM | > 10000 nM | IC50 [3, 9]: > 30000 nM; IC50 [6, 12]: > 30000 nM
COc1cc(/C(=N/N)c2csc(-c3ccccc3)n2)cc(OC)c1OC [2d-cis, (Z)-4-(hydrazono(3,4,5-trimethoxyphenyl)methyl)-2-phenylthiazole] | 1120 nM | 1210 nM | 872 nM | 1800 nM | IC50 [3, 9]: 2000 ± 800 nM; IC50 [6, 12]: 900 ± 300 nM
COc1cc(/C(=N\N)c2csc(-c3ccccc3)n2)cc(OC)c1OC [2d-trans, (E)-4-(hydrazono(3,4,5-trimethoxyphenyl)methyl)-2-phenylthiazole] | 1040 nM | 1210 nM | 966 nM | 1300 nM | IC50 [3, 9]: 1800 ± 700 nM; IC50 [6, 12]: 600 ± 200 nM
COc1cc(NC(=O)c2csc(-c3ccccc3)n2)cc(OC)c1OC [2g, 2-Phenyl-N-(3,4,5-trimethoxyphenyl)thiazole-4-carboxamide] | > 10000 nM | > 10000 nM | > 10000 nM |  | IC50 [3, 9]: > 30000 nM; IC50 [6, 12]: > 30000 nM
COc1cc(C(=O)Nc2csc(-c3ccccc3)n2)cc(OC)c1OC [2h, 3,4,5-Trimethoxy-N-(2-phenylthiazol-4-yl)benzamide] | > 10000 nM | > 10000 nM | > 10000 nM | > 10000 nM | IC50 [3, 9]: > 30000 nM; IC50 [6, 12]: > 30000 nM
COc1cc(C(=O)c2csc(-c3ccc(CC#N)cc3)n2)cc(OC)c1OC [2n, 2-(4-(4-(3,4,5-Trimethoxybenzoyl)thiazol-2-yl)phenyl)acetonitrile] |  |  |  |  | IC50 [1, 13]: 131 nM; IC50 [2, 14]: 143 nM; IC50 ([3]; Mus musculus, B16-F1; Table 6; read-out: IC50 ±SEM (nM), B16-F1): 290 nM; IC50 [4, 15]: 99 nM; IC50 [5, 16]: 101 nM; IC50 ([6]; Homo sapiens, A-375; Table 6; read-out: IC50 ±SEM (nM), A375): 210 nM
COc1cc(/C=C\c2csc(-c3ccccc3)n2)cc(OC)c1OC [3a, (Z)-2-Phenyl-4-(3,4,5-trimethoxystyryl)thiazole] | > 10000 nM | > 10000 nM | > 10000 nM | > 10000 nM | IC50 ([3]; Mus musculus, B16-F1, read-out: IC50 ± SEM (nM), B16-F1): 11000 ± 2800 nM; IC50 ([6]; Homo sapiens, A-375, 96 h, read-out: IC50 ± SEM (nM), A375): 46500 ± 23300 nM
COc1cc(C(=O)c2csc(Nc3ccc(Cl)cc3)n2)cc(OC)c1OC [5d, (2-((4-Chlorophenyl)amino)thiazol-4-yl)(3,4,5-trimethoxyphenyl)methanone] | 33 ± 1 nM | 73 ± 1 nM | 36 ± 1 nM | 45 ± 1 nM | IC50 [6, 12]: 25 ± 7 nM
Clc1nccc2ccc(-c3ccc4[nH]ccc4c3)cc12 [6d, 1-Chloro-7-(1H-indol-5-yl)-isoquinoline] |  |  |  |  | IC50 [1, 13]: 908 nM; IC50 [2, 14]: 1640 nM; IC50 [4, 15]: 929 nM; IC50 [5, 16]: 703 nM
O=S(=O)(c1ccccc1)n1ccnc1-c1ccccc1 [10a, 2-phenyl-1-(phenylsulfonyl)-1H-imidazole] |  |  |  |  | IC50 [1, 17]: > 10000 nM
O=S(=O)(c1ccccc1)n1ccnc1-c1ccc(OCc2ccccc2)cc1 [10j, 2-(4-(benzyloxy)phenyl)-1-(phenylsulfonyl)-1H-imidazole] |  |  |  |  | IC50 [1, 17]: > 10000 nM
O=[N+]([O-])c1ccc(-c2nccn2S(=O)(=O)c2ccccc2)cc1 [10x, 2-(4-nitrophenyl)-1-(phenylsulfonyl)-1H-imidazole] |  |  |  |  | IC50 [1, 17]: > 10000 nM
COc1cc(C(=O)n2ccnc2-c2ccccc2)cc(OC)c1OC [12aaa, (2-phenyl-1H-imidazol-1-yl)(3,4,5-trimethoxyphenyl)methanone] |  |  |  |  | IC50 [1, 17]: > 10000 nM
COc1ccc(C(=O)n2ccnc2-c2ccccc2)cc1 [12aba] |  |  |  |  | IC50 ([1]; read-out: IC50 (nM), PC-3, SRB, 96 h, Table 11): > 10000 nM
COc1ccc(C(=O)c2c[nH]c(-c3ccccc3)n2)cc1OC [12ae, (3,4-dimethoxyphenyl)(2-phenyl-1H-imidazol-4-yl)methanone] |  |  |  |  | IC50 [1, 17]: > 10000 nM

Structure (SMILES) | IC50 [1, 7] | IC50 [2, 8] | IC50 [4, 10] | IC50 [5, 11] | also measured
O=C(c1cccc(F)c1)c1c[nH]c(-c2ccccc2)n1 [12ag, (3-fluorophenyl)(2-phenyl-1H-imidazol-4-yl)methanone] |  |  |  |  | IC50 [1, 17]: > 10000 nM
COc1cc(C(=O)c2c[nH]c(-c3ccc(F)cc3)n2)cc(OC)c1OC [12ba, (2-(4-fluorophenyl)-1H-imidazol-4-yl)(3,4,5-trimethoxyphenyl)methanone] | 169 ± 12 nM |  | 81 ± 1 nM | 98 ± 2 nM | IC50 [2, 18]: 132 ± 24 nM
COc1ccc(-c2nc(C(=O)c3cc(OC)c(OC)c(OC)c3)c[nH]2)cc1 [12ca, (2-(4-methoxyphenyl)-1H-imidazol-4-yl)(3,4,5-trimethoxyphenyl)methanone] | 45 ± 1 nM |  | 34 ± 0.3 nM |  | IC50 [2, 18]: 48 ± 0.5 nM
COc1cc(C(=O)c2cn(Cc3ccccc3)c(-c3ccc(C)cc3)n2)cc(OC)c1OC [12daa, (1-Benzyl-2-(p-tolyl)-1H-imidazol-4-yl)(3,4,5-trimethoxyphenyl)methanone] | 466 nM |  | 778 nM | 683 nM | IC50 [2, 18]: 1500 nM
COc1cc(C(=O)c2c[nH]c(-c3ccc(N(C)C)cc3)n2)cc(OC)c1OC [12ga, (2-(4-(dimethylamino)phenyl)-1H-imidazol-4-yl)(3,4,5-trimethoxyphenyl)methanone] | 92 ± 4 nM |  | 67 ± 0.7 nM | 58 ± 2 nM | IC50 [2, 18]: 95 ± 1 nM
CN(C)c1ccc(-c2nc(C(=O)c3ccc(F)cc3)c[nH]2)cc1 [12gb, (2-(4-(dimethylamino)phenyl)-1H-imidazol-4-yl)(4-fluorophenyl)methanone] | 81 ± 3 nM |  | 45 ± 0.3 nM | 57 ± 6 nM | 
COc1ccc(-c2nc(C(=O)c3ccc(F)cc3)c[nH]2)cc1OC [12hb, (2-(3,4-dimethoxyphenyl)-1H-imidazol-4-yl)(4-fluorophenyl)methanone] | 10000 nM |  | 2170 ± 48 nM | 2530 nM | IC50 [2, 18]: 10000 nM; IC50 ([6]; Homo sapiens, A-375; A375 melanoma cells, 48 h, SRB; read-out: IC50 ± SEM (nM) A375): 10000 nM
COc1cc(C(=O)c2c[nH]c(-c3ccc(OCc4ccccc4)cc3)n2)cc(OC)c1OC [12ja, (2-(4-(benzyloxy)phenyl)-1H-imidazol-4-yl)(3,4,5-trimethoxyphenyl)methanone] | 10000 nM |  | 2840 nM | 2790 nM | IC50 [2, 18]: 10000 nM
O=C(c1ccc(F)cc1)c1c[nH]c(-c2ccc(OCc3ccccc3)cc2)n1 [12jb, (2-(4-(benzyloxy)phenyl)-1H-imidazol-4-yl)(4-fluorophenyl)methanone] | 79 ± 0.4 nM |  | 43 ± 0.2 nM | 44 ± 7 nM | IC50 [2, 18]: 60 ± 3 nM
COc1cc(C(=O)c2coc(-c3ccccc3)n2)cc(OC)c1OC [36a, (2-Phenyl-oxazol-4-yl)-(3,4,5-trimethoxy-phenyl)-methanone] | 294 nM | 292 nM | 324 nM | 310 nM | IC50 [3, 9]: 600 ± 200 nM; IC50 [6, 12]: 300 ± 100 nM
Fc1ccc(-c2ccc3ccnc(-c4ccc(F)cc4)c3c2)cc1 [compound 40, 1,7-Bis-(4-fluoro-phenyl)-isoquinoline] |  |  |  |  | IC50 [1, 19]: 19600 nM; IC50 [2, 20]: 18400 nM; IC50 [4, 21]: 6200 nM; IC50 ([5]; read-out: IC50 (nM), LNCaP): 13400 nM
O=S(=O)(c1ccc(F)cc1)N1CCCc2ccc(-c3ccc4[nH]ccc4c3)cc21 [compound 41, 1-(4-Fluoro-benzenesulfonyl)-7-(1H-indol-5-yl)-1,2,3,4-tetrahydroquinoline] |  |  |  |  | IC50 [1, 19]: 18200 nM; IC50 [2, 20]: 17000 nM; IC50 [4, 21]: > 20000 nM; IC50 ([5]; read-out: IC50 (nM), LNCaP): 15800 nM
O=S(=O)(c1ccc(F)cc1)N1CCc2ccc(Br)cc2C1 [compound 42, 7-Bromo-2-(4-fluoro-benzenesulfonyl)-1,2,3,4-tetrahydro-isoquinoline] |  |  |  |  | IC50 [1, 19]: 23800 nM; IC50 [2, 20]: 24900 nM; IC50 [4, 21]: > 20000 nM; IC50 ([5]; read-out: IC50 (nM), LNCaP): 43600 nM
O=S(=O)(c1ccc(F)cc1)N1CCCc2ccc(Br)cc21 [compound 43, 7-Bromo-1-(4-fluoro-benzenesulfonyl)-1,2,3,4-tetrahydroquinoline] |  |  |  |  | IC50 [1, 19]: 14700 nM; IC50 [2, 20]: 17200 nM; IC50 [4, 21]: > 20000 nM; IC50 ([5]; read-out: IC50 (nM), LNCaP): 12700 nM
c1ccc(Nc2nccn2C(c2ccccc2)(c2ccccc2)c2ccccc2)cc1 [d, N-Phenyl-1-trityl-1H-imidazol-2-amine] | > 1000 nM | > 1000 nM | > 1000 nM | > 1000 nM | 
COc1cc(C(=O)c2cn(C(c3ccccc3)(c3ccccc3)c3ccccc3)c(Nc3ccccc3)n2)cc(OC)c1OC [e, (2-(Phenylamino)-1-trityl-1H-imidazol-4-yl)(3,4,5 trimethoxyphenyl)methanone] | > 1000 nM | > 1000 nM | > 1000 nM | > 1000 nM | 
